Data as given in US20100261876A1, “NOVEL METHODS OF […] FOR T[…] PEPTIDES” (priority 2007, published 2010).
Where a SMILES comes first, the peptide text is derived from it.

Experiments:
HIV-Res = experiment: Magi-CCR5 infectivity assay, resistant viral isolate; assay type: cell-based, HIV-1; conditions: compared to SEQ ID NO:6 / 7
Text: Assessment of biological properties included measurement of antiviral activity against HIV-1 strains. In determining antiviral activity (e.g., one measure being the ability to inhibit transmission of HIV to a target cell) of the HIV fusion inhibitor peptides, an in vitro assay which has been shown, by data generated using peptides derived from the HR regions of HIV gp41, to be predictive of antiviral activity observed in vivo was used. […] These assays score for reduction of infectious virus titer employing the indicator cell lines MAGI or the CCR5 expressing derivative cMAGI. Both cell lines exploit the ability of HIV-1 tat to transactivate the expression of a β-galactosidase reporter gene driven by the HIV-LTR. The β-gal reporter has been modified to localize in the nucleus and can be detected with the X-gal substrate as intense nuclear staining within a few days of infection. […] The number of infected cells for each control and peptide dilution was determined with the CCD-imager, and then the IC50 was calculated (expressed in μg/ml).
Viruses resistant to the antiviral activity of a peptide consisting of a base sequence can be produced using standard laboratory methods. […] The cultures are maintained and monitored until syncytia are present. […] The second round of culture is maintained and monitored for presence of virus resistant to the antiviral activity of the peptide. […]

[1] = Intravenous pharmacokinetics in cynomolgus monkeys; assay type: in vivo, cynomolgus monkeys (Macaca fasicularis); conditions: relative to base sequence SEQ ID NO:5
Experimental: For determining pharmacokinetic properties, an HIV fusion inhibitor peptide or a base sequence from which an HIV fusion inhibitor peptide is derived was dosed intravenously in cynomolgus monkeys (Macaca fasicularis) (other animal models may be used for determining pharmacokinetic properties, as known in the art). At various times post-dose, blood samples were drawn and plasma isolated by centrifugation. Plasma samples were stored frozen until analysis by LC-MS (liquid chromatography/mass spectrometry) in the electrospray, positive-ion mode. An HIV fusion inhibitor or base sequence was eluted from a C18 or C8 HPLC column with a gradient of acetonitrile in a buffer of 10 mM ammonium acetate, pH 6.8. At the time of analysis, plasma samples were deproteinated with either two or three volumes of acetonitrile containing 0.5% formic acid. Duplicate calibration standards in cynomolgus plasma samples were prepared at the same time as the samples and analyzed before and after the samples containing either HIV fusion inhibitor peptide or base sequence. Pharmacokinetic properties were calculated from the plasma concentration-time data using either mono-exponential or bi-exponential mathematical models. Models were derived by non-linear least squares optimization. A 1/C^2 weighting of concentrations was used. […]

[2] = Stability in aqueous solution (PBS), peptide remaining in solution by HPLC; assay type: physicochemical; conditions: phosphate-buffered saline (PBS), 10 mg/ml in PBS, about pH 7.3 to 7.5, 37° C., read-out: peptide remaining detectable in solution at 1 week
[3] = system: virus isolates (IIIB, 030, 060 and 098); experiment: In vitro resistance selection, geometric mean over isolates; assay type: cell-based, HIV; conditions: compared to SEQ ID NO:2
Experimental: Biological properties of the HIV fusion inhibitor peptides provided herein have been compared with other recognized, effective antiviral agents, including SEQ ID NO: 2 (enfuvirtide). In particular, in vitro resistance comparison studies were performed between the novel SEQ ID NO:9 compound of interest and established antiviral agent SEQ ID NO:2, described in detail as follows: MT2 cells were infected with virus isolates (IIIB, 030, 060 and 098) and cultured in increasing concentrations of SEQ ID NO:2 (enfuvirtide) or SEQ ID NO:9 to select for resistance. The initial peptide concentration was approximately 2 times the IC50 of each peptide against the corresponding wild type isolate. Peptide concentrations were maintained by adding fresh peptide every 1-3 days. Cultures were monitored for cytopathic effect (CPE) using standard techniques and when maximal CPE was achieved, a small aliquot of virus was used for subsequent rounds of infection. Peptide concentrations were increased 2 to 4-fold depending on the length of time in culture when compared to the growth rate of wild type virus. During the course of selection, peptide-free virus stocks were also collected. Peptide-free virus stocks were characterized for gp41 genotypic changes by dideoxy sequencing chemistries and phenotypic susceptibility was determined using a cMAGI infectivity assay.

SMILES	resistance profile (activity against the resistant viral isolate Res) (HIV-Res)	biological half-life, in words [1]	remaining at 168 h, 10 mg/ml [2]	barrier to development of resistance in vitro [3]
CC[C@H](C)[C@H](NC(=O)[C@H](C)NC(=O)[C@H](CCCNC(=N)N)NC(=O)[C@H](CC(=O)O)NC(=O)[C@H](Cc1c[nH]c2ccccc12)NC(=O)[C@H](C)NC(=O)[C@H](CCC(=O)O)NC(=O)[C@H](Cc1c[nH]c2ccccc12)NC(=O)[C@@H](NC(=O)[C@@H](NC(C)=O)[C@@H](C)O)[C@@H](C)O)C(=O)N[C@@H](C)C(=O)N[C@@H](CCC(=O)O)C(=O)N[C@@H](Cc1ccc(O)cc1)C(=O)N[C@@H](C)C(=O)N[C@@H](C)C(=O)N[C@@H](CCCNC(=N)N)C(=O)N[C@H](C(=O)N[C@@H](CCC(=O)O)C(=O)N[C@@H](C)C(=O)N[C@@H](CC(C)C)C(=O)N[C@@H](CC(C)C)C(=O)N[C@@H](CCCNC(=N)N)C(=O)N[C@@H](C)C(=O)N[C@@H](C)C(=O)N[C@@H](CCC(N)=O)C(=O)N[C@@H](CCC(=O)O)C(=O)N[C@@H](CCC(N)=O)C(=O)N[C@@H](CCC(N)=O)C(=O)N[C@@H](CCC(=O)O)C(=O)N[C@@H](CCCCN)C(=O)N[C@@H](CC(C)C)C(=O)N[C@@H](CCC(=O)O)C(=O)N[C@@H](C)C(=O)N[C@@H](C)C(=O)N[C@@H](CC(C)C)C(=O)N[C@@H](CCCNC(=N)N)C(=O)N[C@@H](CCC(=O)O)C(=O)N[C@@H](CC(C)C)C(N)=O)[C@@H](C)CC [compound 10] (Ac-TTWEAWDRAIAEYAARIEALLRAAQEQQEKLEAALREL-NH2)	good resistance profile	increased biological half-life	–	–
CC[C@H](C)[C@H](NC(=O)[C@H](C)NC(=O)[C@H](CCCNC(=N)N)NC(=O)[C@H](CC(=O)O)NC(=O)[C@H](Cc1c[nH]c2ccccc12)NC(=O)[C@H](C)NC(=O)[C@H](CCC(=O)O)NC(=O)[C@H](Cc1c[nH]c2ccccc12)NC(=O)[C@@H](NC(=O)[C@@H](NC(C)=O)[C@@H](C)O)[C@@H](C)O)C(=O)N[C@@H](C)C(=O)N[C@@H](CCC(=O)O)C(=O)N[C@@H](Cc1ccc(O)cc1)C(=O)N[C@@H](C)C(=O)N[C@@H](C)C(=O)N[C@@H](CCCNC(=N)N)C(=O)N[C@H](C(=O)N[C@@H](CCC(=O)O)C(=O)N[C@@H](C)C(=O)N[C@@H](CC(C)C)C(=O)N[C@@H](CC(C)C)C(=O)N[C@@H](CCCNC(=N)N)C(=O)N[C@@H](C)C(=O)N[C@@H](CC(C)C)C(=O)N[C@@H](CCC(N)=O)C(=O)N[C@@H](CCC(=O)O)C(=O)N[C@@H](CCC(N)=O)C(=O)N[C@@H](CCC(N)=O)C(=O)N[C@@H](CCC(=O)O)C(=O)N[C@@H](CCCCN)C(=O)N[C@@H](CC(N)=O)C(=O)N[C@@H](CCC(=O)O)C(=O)N[C@@H](C)C(=O)N[C@@H](C)C(=O)N[C@@H](CC(C)C)C(=O)N[C@@H](CCCNC(=N)N)C(=O)N[C@@H](CCC(=O)O)C(=O)N[C@@H](CC(C)C)C(N)=O)[C@@H](C)CC [compound 9] (Ac-TTWEAWDRAIAEYAARIEALLRALQEQQEKNEAALREL-NH2)	good resistance profile	increased biological half-life	≥ 90%	higher barrier to development of resistance
